Earlier results, collected in publication PMC9516332 (Frontiers in Oncology, 2022).

How the values were obtained:
Conditions in all cases: cited from earlier work
[1] = target: panel of 255 wild-type kinases (Homo sapiens, UniProt Q08345)
[2] = target: panel of 255 wild-type kinases (Homo sapiens, UniProt Q13153)
[3] = target: T1, panel of 255 wild-type kinases (Homo sapiens, UniProt Q9NZJ5)
T1 sequence (Q9NZJ5 30-1116): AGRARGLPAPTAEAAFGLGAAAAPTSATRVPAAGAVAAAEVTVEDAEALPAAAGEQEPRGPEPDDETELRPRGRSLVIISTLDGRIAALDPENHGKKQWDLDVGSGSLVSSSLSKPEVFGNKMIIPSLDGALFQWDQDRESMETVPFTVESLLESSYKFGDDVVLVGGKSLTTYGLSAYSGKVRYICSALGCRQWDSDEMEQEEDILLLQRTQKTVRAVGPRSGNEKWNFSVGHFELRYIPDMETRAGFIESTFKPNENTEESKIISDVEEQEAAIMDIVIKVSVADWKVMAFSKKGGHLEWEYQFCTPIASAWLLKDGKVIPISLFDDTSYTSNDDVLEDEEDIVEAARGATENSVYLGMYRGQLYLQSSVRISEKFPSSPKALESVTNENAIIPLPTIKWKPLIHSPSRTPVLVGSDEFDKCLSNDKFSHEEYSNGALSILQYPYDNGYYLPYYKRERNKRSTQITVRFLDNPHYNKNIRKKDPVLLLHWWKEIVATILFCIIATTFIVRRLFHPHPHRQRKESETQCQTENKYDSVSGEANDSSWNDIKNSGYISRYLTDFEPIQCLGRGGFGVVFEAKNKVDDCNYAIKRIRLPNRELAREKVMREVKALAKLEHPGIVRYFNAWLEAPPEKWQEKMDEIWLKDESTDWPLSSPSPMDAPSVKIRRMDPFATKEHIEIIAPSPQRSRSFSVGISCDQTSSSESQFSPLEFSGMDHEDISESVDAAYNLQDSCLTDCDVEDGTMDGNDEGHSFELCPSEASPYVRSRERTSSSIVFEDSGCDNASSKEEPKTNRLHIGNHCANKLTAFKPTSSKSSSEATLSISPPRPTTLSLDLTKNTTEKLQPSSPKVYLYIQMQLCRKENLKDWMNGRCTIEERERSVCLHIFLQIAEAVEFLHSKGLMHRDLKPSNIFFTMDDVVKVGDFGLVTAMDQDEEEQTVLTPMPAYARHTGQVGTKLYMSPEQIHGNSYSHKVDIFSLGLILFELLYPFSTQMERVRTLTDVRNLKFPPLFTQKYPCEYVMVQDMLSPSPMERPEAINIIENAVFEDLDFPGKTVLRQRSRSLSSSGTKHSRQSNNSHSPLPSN

[4] = target: panel of 255 wild-type kinases (Homo sapiens, UniProt P17252)
[5] = target: panel of 255 wild-type kinases (Homo sapiens, UniProt Q9H422)
[6] = target: panel of 255 wild-type kinases (Homo sapiens, UniProt Q9UQM7)
[7] = target: panel of 255 wild-type kinases (Homo sapiens, UniProt P49760)
[8] = target: panel of 255 wild-type kinases (Homo sapiens, UniProt Q9UPE1)
[9] = target: T2, panel of 255 wild-type kinases (Homo sapiens, UniProt Q12866)
T2 sequence (Q12866 21-999): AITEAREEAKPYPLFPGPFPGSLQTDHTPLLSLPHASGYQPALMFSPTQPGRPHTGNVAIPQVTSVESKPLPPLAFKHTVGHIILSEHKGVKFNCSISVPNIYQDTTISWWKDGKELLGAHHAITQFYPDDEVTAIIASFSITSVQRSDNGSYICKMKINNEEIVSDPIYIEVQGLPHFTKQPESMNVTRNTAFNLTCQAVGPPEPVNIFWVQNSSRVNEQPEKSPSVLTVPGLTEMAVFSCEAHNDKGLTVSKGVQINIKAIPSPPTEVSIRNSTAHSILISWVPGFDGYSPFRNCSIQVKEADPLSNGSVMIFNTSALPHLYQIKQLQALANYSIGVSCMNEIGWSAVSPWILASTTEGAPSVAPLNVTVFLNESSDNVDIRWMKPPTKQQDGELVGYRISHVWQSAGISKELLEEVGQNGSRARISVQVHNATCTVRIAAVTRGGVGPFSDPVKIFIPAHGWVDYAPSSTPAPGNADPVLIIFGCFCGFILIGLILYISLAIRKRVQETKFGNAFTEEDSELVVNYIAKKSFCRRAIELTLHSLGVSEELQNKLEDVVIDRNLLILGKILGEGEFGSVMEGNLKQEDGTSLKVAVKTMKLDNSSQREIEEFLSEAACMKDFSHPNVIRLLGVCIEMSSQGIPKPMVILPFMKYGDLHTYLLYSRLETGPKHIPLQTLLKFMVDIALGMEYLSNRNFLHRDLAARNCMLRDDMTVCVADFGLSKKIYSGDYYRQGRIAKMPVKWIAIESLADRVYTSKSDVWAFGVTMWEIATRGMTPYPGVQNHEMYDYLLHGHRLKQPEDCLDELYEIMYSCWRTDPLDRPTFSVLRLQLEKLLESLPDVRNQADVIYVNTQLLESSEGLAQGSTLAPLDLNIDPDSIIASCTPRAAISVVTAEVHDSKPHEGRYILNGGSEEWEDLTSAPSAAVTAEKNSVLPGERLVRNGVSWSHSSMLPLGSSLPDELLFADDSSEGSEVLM

COc1cc(N2CCC(N3CCN(C)CC3)CC2)ccc1Nc1ncc(Cl)c(Nc2ccccc2P(C)(C)=O)n1 [brigatinib]
%-inhibition at 1 µmol/L, DDR1 [1]: 84% | %-inhibition, PAK1 [2]: 4.27% | %-inhibition at 1 µmol/L, PEK [3]: 18% | %-inhibition at 1 µmol/L, PKCα [4]: 15% | %-inhibition at 1 µmol/L, HIPK3 [5]: 7% | %-inhibition CaMK2α [6]: 86% | %-inhibition at 1 µmol/L, CLK2 [7]: 91% | %-inhibition, MSSK1 [8]: 5.3% | %-inhibition, MER [9]: 89%
